# Experimental data: patent publication US20030013660A1, “Dioxolane analogs for improved inter-cellular delivery” (Shire BioChem Inc., priority 2000, published 2003)
# Several values for one entry are separate records, joined by “and”; a condition that tells them apart may be missing. Identical values can stand only once. Like-named read-outs stand apart in the source and are kept apart here.
# Experiments:
# [1] = tested on: SF-268; assay: 3H-TdR (3H-thymidine) incorporation assay at 72 hr; format: cell-based, Human; settings: Homo sapiens, 3H-TdR incorporation at 72 hr
# [2] = tested on: H-460; assay: 3H-TdR (3H-thymidine) incorporation assay at 72 hr; format: cell-based, Human; settings: Homo sapiens, 3H-TdR incorporation at 72 hr
# [3] = tested on: MCF-7; assay: 3H-TdR (3H-thymidine) incorporation assay at 72 hr; format: cell-based, Human; settings: Homo sapiens, 3H-TdR incorporation at 72 hr
# [4] = tested on: CEM/dCK-; assay: 3H-TdR (3H-thymidine) incorporation assay at 72 hr; format: cell-based; settings: for IC50: deoxycytidine kinase-deficient CCRF-CEM; for Factor* (Resistance Factor = Ratio of dCK- on Wild-type CCRF-CEM): ratio of IC50 CEM/dCK- to CCRF-CEM, 24 h
# Experimental: (§1) Table of IC50 Values (μM) for Controls
# (§2) Exposition of 24 hr to drug, wash, incubated for another 48 hr (total of 72 hr assay)
# (§3) (3H-Thymidine Incorporation Assay)
# [5] = tested on: CCRF-CEM; assay: 3H-TdR (3H-thymidine) incorporation assay at 72 hr; format: cell-based; settings: Homo sapiens, CCRF-CEM, read-out: IC50 CCRF-CEM 24 h, 24 h drug exposure, wash, another 48 hr; 3H-TdR incorporation at 72 hr
# Experimental: as §1, §2, §3
# [6] = tested on: CEM/dCK-; assay: 3H-TdR incorporation at 72 hr (24 hr drug exposure, wash, 48 hr); format: cell-based; settings: ratio of IC50 CEM/dCK- to IC50 CCRF-CEM
# Experimental: as §2, §3
# [7] = tested on: H-460; assay: as above; format: cell-based, Human
# Experimental: as §2, §3
# [8] = tested on: SF-268; assay: as above; format: cell-based, Human; settings: Homo sapiens, SF-268, read-out: IC50 in μM (3H-TdR incorporation at 72 hr) SF-268 24 h, SF-268 Human Central Nervous System Tumor; 24 h drug exposure, 72 hr assay
# Experimental: as §2, §3
# [9] = tested on: MCF-7; assay: as above; format: cell-based, Human; settings: Homo sapiens, MCF7, read-out: IC50 in μM (3H-TdR incorporation at 72 hr) MCF-7 24 h, MCF-7 Human Breast Carcinoma, 72 hr assay
# Experimental: as §2, §3
# [10] = SF-268, read-out: IC50 SF-268 24 h, 24 h drug exposure, wash, another 48 hr
# [11] = NCI-H460, read-out: IC50 H-460 24 h, 24 h drug exposure, wash, another 48 hr
# [12] = MCF7, read-out: IC50 MCF-7 24 h, 24 h drug exposure, wash, another 48 hr
# [13] = Homo sapiens, CCRF-CEM, read-out: IC50 CEM/dCK- 24 h, 24 h drug exposure, wash, another 48 hr
# [14] = read-out: IC50 in μM (3H-TdR incorporation at 72 hr) H-460 24 h, H-460 Human Lung Carcinoma, 72 hr assay
# [15] = SF-268, read-out: IC50 SF-268 (72 h), 72 h exposure
# [16] = NCI-H460, read-out: IC50 H-460 (72 h), 72 h exposure
# [17] = MCF7, read-out: IC50 MCF-7 (72 h), 72 h exposure
SMILES,"IC50 [1, 10] [nM]","IC50 [2, 11] [nM]","IC50 [3, 12] [nM]","IC50 [4, 13] [nM]",Factor* (Resistance Factor = Ratio of dCK- on Wild-type CCRF-CEM) [4],IC50 [5] [nM],Factor* (Resistance Factor = Ratio of dCK- on Wild-type CCRF-CEM) [6],"IC50 [7, 14] [µM]",IC50 [8] [µM],"IC50 ([7]; Homo sapiens, NCI-H460, read-out: IC50 in μM (3H-TdR incorporation at 72 hr) H-460 24 h, H-460 Human Lung Carcinoma, 72 hr assay) [µM]",IC50 [9] [µM],"IC50 [1, 15] [nM]","IC50 [2, 16] [nM]","IC50 [3, 17] [nM]","IC50 ([4]; read-out: IC50 CEM/dCK- 24 h, 24 h drug exposure, wash, another 48 hr) [nM]"
"CN(C)/C=N/c1ccn([C@@H]2CO[C@H](COC(=O)Cc3ccc(N(C)C)cc3)O2)c(=O)n1 [Compound 143, (2S,4S)-2-(4″-N,N- DIMETHYLAMINOPHENYLACET OXY)METHYL-4-(4′-N,N- DIMETHYLAMINOMETHYLENE- CYTOSIN-1′-YL)-1,3- DIOXOLANE]",140,12,3.7,32000,"8,205",3.9,–,–,–,–,–,–,–,–,–
"O=c1nc(NC2(c3ccccc3)c3ccccc3Oc3ccccc32)ccn1[C@@H]1CO[C@H](COC2(c3ccccc3)c3ccccc3Oc3ccccc32)O1 [Compound 144, 4-(9-PHENYL-9#H!- XANTHEN-9-YLAMINO)-1- [2-(9-PHENYL-9#H!- XANTHEN-9-YLOXYMETHYL)- [1,3]DIOXOLAN-4-YL]- 1#H!-PYRIMIDIN-2-ONE]",1900,3000,5200,78000,110,710,–,–,–,–,–,–,–,–,–
"Nc1ccn([C@@H]2CO[C@H](COC3(c4ccccc4)c4ccccc4Oc4ccccc43)O2)c(=O)n1 [Compound 146, 4-AMINO-1-[2-(9-PHENYL- 9#H!-XANTHEN-9- YLOXYMETHYL)- [1,3]DIOXOLAN-4-YL]- 1#H!-PYRIMIDIN-2-ONE]",28,780,1200,50000,385,130,–,–,–,–,–,–,–,–,–
"Nc1ccn([C@@H]2CO[C@H](COC(=S)Oc3ccccc3)O2)c(=O)n1 [Compound 147, THIOCARBONIC ACID O- [4(S)-(4′-AMINO-2′-OXO- 2H-PYRIMIDIN-1′-YL)- [1,3]DIOXOLAN-2(S)- YLMETHYL] ESTER O- PHENYL ESTER]",17,60,110,> 100000,>4000,25,–,–,–,–,–,–,–,–,–
"CCCCCCOC(=O)Nc1ccn([C@@H]2CO[C@H](COC(=O)OCCCCCC)O2)c(=O)n1 [Compound 150, CARBONIC ACID HEXYL ESTER 4-(4- HEXYLOXYCARBONYLAMINO- 2-OXO-2H-PYRIMIDIN-1- YL)-[1,3]DIOXOLAN-2- YLMETHYL ESTER]",1300,960,1600,90000,692,130,–,–,–,–,–,–,–,–,–
"O=c1nc(NCn2nnc3ccccc32)ccn1[C@@H]1CO[C@H](CO)O1 [Compound 152, 4-[(BENZOTRIAZOL-1- YLMETHYL)-AMINO]-1-(2- HYDROXYMETHYL- [1,3]DIOXOLAN-4-YL)-1H- PYRIMIDIN-2-ONE]",31000,3500,3000,> 100000,>127,790,–,–,–,–,–,–,–,–,–
"O=C(Nc1ccn([C@@H]2CO[C@H](COC(=O)c3ccccc3)O2)c(=O)n1)OCc1ccccc1 [Compound 153, BENZOIC ACID 4-(4- BENZYLOXYCARBONYLAMINO- 2-OXO-2H-PYRIMIDIN-1- YL)-[1,3]DIOXOLAN-2- YLMETHYL ESTER]",59000,46000,39000,> 100000,>476,210,–,–,–,–,–,–,–,–,–
"CC(C)(OCc1ccccc1)OC[C@H]1OC[C@@H](n2ccc(N)nc2=O)O1 [Compound 154, 4-AMINO-1-[2-(1- BENZYLOXY-1-METHYL- ETHOXYMETHYL)- [1,3]DIOXOLAN-4-YL]-1H- PYRIMIDIN-2-ONE]",4400,760,1600,> 100000,>714,140,–,–,–,–,–,–,–,–,–
"CC(C)C(C(=O)OC[C@H]1OC[C@@H](n2ccc(N)nc2=O)O1)N(C)C (stereo partly drawn) [Compound 156, (2S,4S)-2-(N,N- DIMETHYL-L- VALINYLOXYMETHYL)-4- CYTOSIN-1′-YL-1,3- DIOXOLANE]",930,120,68,81000,"11,571",7,–,–,–,–,–,–,–,–,–
"CC(C(=O)OC[C@H]1OC[C@@H](n2ccc(N)nc2=O)O1)C(c1ccccc1)c1ccccc1 (stereo partly drawn) [Compound 157, (2S,4S)-(3″-DIPHENYL- 2″- METHYLPROPIOXYMETHYL)- 4-CYTOSIN-1′-YL-1,3- DIOXOLANE]",2200,24,550,> 100000,>8333,12,–,–,–,–,–,–,–,–,–
"O=C(Nc1ccn([C@@H]2CO[C@H](COC(=O)OCCCCCl)O2)c(=O)n1)OCCCCCl [Compound 159, CARBONIC ACID 4-[4-(4- CHLORO- BUTOXYCARBONYLAMINO)-2- OXO-2H-PYRIMIDIN-1-YL]- [1,3]DIOXOLAN-2- YLMETHYL ESTER 4- CHLORO-BUTYL ESTER]",1600,870,720,> 100000,>263,380,–,–,–,–,–,–,–,–,–
"O=C(Nc1ccn([C@@H]2CO[C@H](CO)O2)c(=O)n1)OCCCCCl [Compound 160, [1-(2-HYDROXYMETHYL- [1,3]DIOXOLAN-4-YL)-2- OXO-1,2-DIHYDRO- PYRIMIDIN-4-YL]- CARBAMIC ACID 4-CHLORO- BUTYL ESTER]",1200,920,360,> 100000,>278,360,–,–,–,–,–,–,–,–,–
"Nc1ccn([C@@H]2CO[C@H](COC(=O)c3ccc(C(F)(F)F)cc3)O2)c(=O)n1 [Compound 189, 4-TRIFLUOROMETHYL- BENZOIC ACID 4-(4- AMINO-2-OXO-2H- PYRIMIDIN-1-YL)- [1,3]DIOXOLAN-2-YL METHYL ESTER]",–,–,–,–,–,–,1333 and 1300,0.0012,–,–,–,–,–,–,–
"CC(=O)Oc1ccc(COC(=O)Nc2ccn([C@@H]3CO[C@H](CO)O3)c(=O)n2)cc1 [Compound 203, ACETIC ACID 4-[1-(2- HYDROXYMETHYL- [1,3]DIOXOLAN-4-YL)-2- OXO-1,2-DIHYDRO- PYRIMIDIN-4- YLCARBAMOYLOXYMETHYL]- PHENYL ESTER]",–,–,–,–,–,–,–,–,< 0.0001,< 0.0001,< 0.0001,–,–,–,–
"Nc1ccn([C@@H]2CO[C@H](COC(=O)c3ccc([N+](=O)[O-])cc3)O2)c(=O)n1 [Compound 204, 4-NITRO-BENZOIC ACID 4- (4-AMINO-2-OXO-2H- PYRIMIDIN-1-YL)- [1,3]DIOXOLAN-2-YL METHYL ESTER]",–,–,–,–,–,–,1600,0.015,–,–,–,–,–,–,–
"CC(C)C(=O)OC[C@H]1OC[C@@H](n2ccc(N)nc2=O)O1 [Compound 275, ISOBUTYRIC ACID 4-(4- AMINO-2-OXO-2H- PYRIMIDIN-1-YL)- [1,3]DIOXOLAN-2-YL METHYL ESTER]",–,–,–,51600,"9,214",5.6,–,–,–,–,–,13,1.2,4.4,–
"CC(C)CC(=O)OC[C@H]1OC[C@@H](n2ccc(N)nc2=O)O1 [Compound 278, 3-METHYL-BUTYRIC ACID 4-(4-AMINO-2-OXO-2H- PYRIMIDIN-1-YL)- [1,3]DIOXOLAN-2-YL METHYL ESTER]",93,79,38,71200,–,28,–,–,–,–,–,13,2.4,23,91000
"CC(C)[C@H](N)C(=O)Nc1ccn([C@@H]2CO[C@H](CO)O2)c(=O)n1.O=C(O)C(F)(F)F [Compound 280, 2-Amino-N-[1-(2-hydoxymethyl-[1,3]dioxolan-4-yl)-2-oxo-1,2-dihydro-pyrimidin-4-yl]-3-methyl-butyramide; trifluoroacetic acid salt]",18000,1900,3100,> 100000,>53,1900,–,–,–,–,–,–,–,–,–
